In US20060265769A1, “Gab2 (p97) gene and methods of use thereof” (Beth Israel Deaconess Medical Center, Inc., priority 2000, published 2006):

Columns and labels:
BaF3 cells = test: IL-3-induced c-fos promoter luciferase reporter assay; type: cell-based; settings: IL-3 stimulation
Method: Therefore, the role of Gab2 in IL-3-induced c-fos promoter activity was assessed. For c-fos reporter assays, 1.5 μg of c-fos promoter (nt −710 to +42)-luciferase reporter were used (Hu et al., Science 268, 100-102 (1995)). STAT-driven transctivation was measured using 1.5 μg of a GAS-luciferase reporter (Jaster et al., Mol. Cell. Biol. 3364-3372 (1997)). For Elk assays, Gal4-Elk-1 (2 μg) and Gal4-luciferase (1 μg) were used (Bennett et al., Mol. Cell. Biol. 16, 1189-1202 (1996)). Cells were electroporated at 300V/800 μF, transferred to fresh RPMI/10% WEHI supernatant/10% FCS and, after three hours, were starved in RPMI/10% FCS. Twelve hours post-transfection, transfected cells (approximately 10^6/condition) were incubated in RPMI/10% FCS alone or with murine IL-3 (1 ng/ml) for two hours. Luciferase assays were performed with a kit (Promega, Madison, Wis.). Promoter activities were normalized to Renilla luciferase levels.

MCF10A cells [1] = test: Proliferation of MCF10A cells in three-dimensional culture (Ki67 staining); type: cell-based, human; settings: Gab2-overexpressing MCF10A, days 6 and 15 of culture; UO 15 μM on days 13 and 14 (FIG. 15F)
MCF10A cells [2] = settings: treated on days 1 and 2, acini at 9 days (FIG. 15G)

Row | SMILES | IL-3-induced c-fos luciferase activity (BaF3 cells) | effects of Gab2 overexpression on the proliferation of MCF10A (MCF10A cells [1]) | cooperation of Gab2 with Neu (MCF10A cells [2])
1 | COc1cccc(-c2cc(=O)c3ccccc3o2)c1N [PD98059] | ablated | – | –
2 | N#CC(=C(/N)Sc1ccccc1N)/C(C#N)=C(/N)Sc1ccccc1N [UO126] | – | abolished | blocked
